Here are results for three compounds from patent publication US20160106100A1, “MICROBICIDAL COMPOSITION COMPRISING AN ISOTHIAZOLONE AND AN AMINE OXIDE” (priority 2013, published 2016).

What all share (assay type): cell-based
For test [1], the system named is Aspergillus niger (DSM 12623). The experiment in a line: MIC and synergy index of MIT + N,N-Dimethyldodecan-1-amine oxide in Sabouraud glucose agar. The note with it: for Synergy Index (Qa/QA + Qb/QB): sole biocide. The procedure: The synergism of a combination of 2-Methyl-isothiazolinone (MIT) with N,N-Dimethyldodecan-l-amine oxide was tested. Test organisms used was the mould Aspergillus niger (DSM 12623). For the purpose of the test, mixtures containing different concentrations of MIT and N,N-Dimethyldodecan-1-amine oxide were prepared and tested for their action on Aspergillus niger. The active compound mixtures in the corresponding concentrations were introduced into selective nutrient media (Sabouraud glucose agar for Aspergillus niger and the test organisms were likewise incorporated into the agar. The cell density in the agar was in each case 3.7·10^6 spores per ml for Aspergillus niger. The incubation time is 72 hours at 25° C. This was followed by visual testing for growth of Aspergillus niger. The growth was apparent through the formation of colonies or mycelia on the surface of the agar. In this way the minimum inhibitory concentrations (MICs) of the two active compounds were determined, individually and in combination. The MIC is the concentration at which there is no formation of colonies or mycelia on the surface of the agar ( Aspergillus niger).
The synergism that occurred was presented numerically by calculation of the synergy index (SI). This calculation was made using the common method of F. C. Kull et al., Applied Microbiology, vol. 9 (1961), p. 538. SI is calculated there in accordance with the following formula:
Synergy index SI=Qa/QA+Qb/QB
If the synergy index has a value of more than 1, this means that there is an antagonism. If the synergy index adopts a value of 1, this means that the action of the two biocides is additive. If the synergy index takes on a value of below 1, this means that there is synergism of the two biocides.
Calculation of the synergy index of N,N-Dimethyldodecan-1-arnine oxide+MIT in respect of Aspergillus niger for an incubation time of 72 hours at 25° C.

Test [2] has as its system Candida albicans (ATCC 10231). Put plainly: MIC and synergy index of MIT + N,N-Dimethyldodecan-1-amine oxide in Muller Hinton Broth. The note with it: for MHK: alone, 72 hours at 25° C.; for Synergistic Index / Total: single biocide alone. The procedure:
Furthermore, the synergism of a combination of 2-Methyl-isothiazolinone (MIT) with N,N-Dimethyldodecan-1-amine oxide was tested using Candida albicans (ATCC 10231). For the purpose of the test, mixtures containing different concentrations of MIT and N,N-Dimethyldodecan-1-amine oxide were prepared and tested for their action on Candida albicans. The active compound mixtures in the corresponding concentrations were introduced into selective nutrient media (Muller Hinton Broth). The cell density in the broth was in each case 1.0-10^6 spores per ml. The incubation time is 72 hours at 25° C. This was followed by visual testing for growth of Candida albicans. In this way the minimum inhibitory concentrations (MICs) of the two active compounds were determined, individually and in combination. The synergism that occurred was presented numerically by calculation of the synergy index (SI).

The test system of test [3] is Aspergillus niger. Put plainly: MIC and synergy index of ternary mixture Benzalkoniumchloride, N,N-Dimethyldodecan-1-amine oxide and MIT. The note with it: used alone. The procedure:
In a further Experiment the synergy index of a ternary mixture of Benzalkoniumchloride, N,N-Dimethyldodecan-1-amine oxide and MIT was determined in respect of Aspergillus niger for an incubation time of 72 hours at 25 ° C.
The synergy of an active substance mixture that contains Benzalkoniumchloride in addition to N,N-Dimethyldodecan-1-amine oxide and MIT, against the microorganism Aspergillus niger is shown as in Table 4.

`Cn1sccc1=O` [MIT, 2-methylisothiazolin-3-one]: the MIC in test [1] (as sole biocide, 72 hours at 25° C.) is 1000 (MIC) ppm. For the same compound, the “Synergy Index (Qa/QA + Qb/QB)” value in test [1] came out at 1.00. Also, in test [2], the MHK is given as 125 ppm, the “Synergistic Index” value worked out at 1.00 and the Total was 125 ppm.
For `CCCCCCCCCCCC[N+](C)(C)[O-]` [N,N-Dimethyldodecan-1-amine oxide], the MIC in test [1] (Aspergillus niger, DSM12623, 72 h) was 231 µg/mL. The “Synergy Index (Qa/QA + Qb/QB)” value in test [1] is on record as 1.00. In addition, in test [2], the MHK is on record as 50 ppm, the “Synergistic Index” value is on record as 1.00 and the Total was 50 ppm.
As to Benzalkoniumchloride [BAC], the “Synergistic Index” value in test [3] is listed as 1.00. The MHK in test [3] (72 hours at 25 ° C.) is recorded as 80 ppm.
